Laboratory results reported in ChEMBL document CHEMBL3045479, “Synthesis and anti-cancer activity of some novel C-17 analogs of ursolic and oleanolic acids” (2013).
Structures can show the parent of a compound that is named as a salt.

Columns and labels:
Format in all cases: functional
SW-620 = assay: Growth inhibition of Homo sapiens (human) SW620 cells at 10 uM after 48 hr by SRB assay; conditions: SW-620, 48 h, read-out: GI
A549 = assay: Growth inhibition of Homo sapiens (human) A549 cells at 10 uM after 48 hr by SRB assay; conditions: A549, 48 h, read-out: GI
COLO 205 = assay: Growth inhibition of Homo sapiens (human) COLO205 cells at 10 uM after 48 hr by SRB assay; conditions: COLO 205, 48 h, read-out: GI
HeLa = assay: Growth inhibition of Homo sapiens (human) HeLa cells at 10 uM after 48 hr by SRB assay; conditions: read-out: GI
SiHa = assay: Growth inhibition of Homo sapiens (human) SiHa cells at 10 uM after 48 hr by SRB assay; conditions: read-out: GI
IMR-32 = assay: Growth inhibition of Homo sapiens (human) IMR32 cells at 10 uM after 48 hr by SRB assay; conditions: IMR-32, 48 h, read-out: GI
PC-3 = assay: Growth inhibition of Homo sapiens (human) PC3 cells at 10 uM after 48 hr by SRB assay; conditions: PC-3, 48 h, read-out: GI
THP-1 = assay: Growth inhibition of Homo sapiens (human) THP1 cells at 10 uM after 48 hr by SRB assay; conditions: THP-1, 48 h, read-out: GI

Compound	inhibition of growth at 10 µM (SW-620)	inhibition of growth at 10 µM (A549)	inhibition of growth at 10 µM (COLO 205)	inhibition of growth at 10 µM (HeLa)	inhibition of growth at 10 µM (SiHa)	inhibition of growth at 10 µM (IMR-32)	inhibition of growth at 10 µM (PC-3)	inhibition of growth at 10 µM (THP-1)
COC(=O)[C@]12CCC(C)(C)C[C@H]1C1=CC[C@@H]3[C@@]4(C)CC[C@H](O)C(C)(C)[C@@H]4CC[C@@]3(C)[C@]1(C)CC2 [METHYL OLEANOLATE]	8%	48%	0%	18%	21%	55%		
C[C@H]1[C@H](C)CC[C@]2(C(=O)OCCBr)CC[C@]3(C)C(=CC[C@@H]4[C@@]5(C)CC[C@H](O)C(C)(C)[C@@H]5CC[C@]43C)[C@H]12		28%	12%				23%	54%
C#CCOC(=O)[C@]12CCC(C)(C)C[C@H]1C1=CC[C@@H]3[C@@]4(C)CC[C@H](O)C(C)(C)[C@@H]4CC[C@@]3(C)[C@]1(C)CC2 [3BETA-HYDROXY-OLEN-12-EN-28-PROPARGYLATE]	2%	20%	15%	27%	30%	16%		
CC1(C)CC[C@]2(C(=O)O)CC[C@]3(C)C(=CC[C@@H]4[C@@]5(C)CC[C@H](O)C(C)(C)[C@@H]5CC[C@]43C)[C@@H]2C1 [OLEANOLIC_ACID]	24%	24%	33%	26%	3%	22%		
O=c1[nH]cc(F)c(=O)[nH]1 [FLUOROURACIL]	42%	30%	47%	36%	38%	29%		69%
CC(C)=CCOC(=O)[C@]12CC[C@@H](C)[C@H](C)[C@H]1C1=CC[C@@H]3[C@@]4(C)CC[C@H](O)C(C)(C)[C@@H]4CC[C@@]3(C)[C@]1(C)CC2	2%	12%	0%	24%	21%	19%		
COc1cccc2c1C(=O)c1c(O)c3c(c(O)c1C2=O)C[C@@](O)(C(=O)CO)C[C@@H]3O[C@H]1C[C@H](N)[C@H](O)[C@H](C)O1 [DOXORUBICIN HYDROCHLORIDE]	38%	50%	89%	58%		82%		
C[C@H]1[C@H](C)CC[C@]2(C(=O)OCBr)CC[C@]3(C)C(=CC[C@@H]4[C@@]5(C)CC[C@H](O)C(C)(C)[C@@H]5CC[C@]43C)[C@H]12 [BROMOMETHYL-3BETA-HYDROXY-URS-12-EN-28-OATE]		7%	13%				6%	49%
C[C@H]1[C@H](C)CC[C@]2(C(=O)OCCCCBr)CC[C@]3(C)C(=CC[C@@H]4[C@@]5(C)CC[C@H](O)C(C)(C)[C@@H]5CC[C@]43C)[C@H]12 [BROMOBUTYL-3BETA-HYDROXY-URS-12-EN-28-OATE]		2%	10%				23%	7%
C#CCOC(=O)[C@]12CC[C@@H](C)[C@H](C)[C@H]1C1=CC[C@@H]3[C@@]4(C)CC[C@H](O)C(C)(C)[C@@H]4CC[C@@]3(C)[C@]1(C)CC2 [3BETA-HYDROXY-URS-12-EN-28-PROPARGYLATE]	0%	24%	0%	0%	4%	11%		
C[C@H]1[C@H](C)CC[C@]2(C(=O)OCCCCCBr)CC[C@]3(C)C(=CC[C@@H]4[C@@]5(C)CC[C@H](O)C(C)(C)[C@@H]5CC[C@]43C)[C@H]12 [BROMOPENTYL-3BETA-HYDROXY-URS-12-EN-28-OATE]		7%	1%				6%	10%
CC(C)=CCOC(=O)[C@]12CCC(C)(C)C[C@H]1C1=CC[C@@H]3[C@@]4(C)CC[C@H](O)C(C)(C)[C@@H]4CC[C@@]3(C)[C@]1(C)CC2 [3BETA-HYDROXY-OLEAN-12-EN-28-PRENYLATE]	13%	25%	0%	5%	36%	16%		
COC(=O)COC(=O)[C@]12CCC(C)(C)C[C@H]1C1=CC[C@@H]3[C@@]4(C)CC[C@H](O)C(C)(C)[C@@H]4CC[C@@]3(C)[C@]1(C)CC2 [3BETA-HYDROXY-OLEAN-12-EN-28-METHYL ACETOACETATE]	4%	25%	2%	13%	19%	18%		
C[C@H]1[C@H](C)CC[C@]2(C(=O)OCCCCCCCCBr)CC[C@]3(C)C(=CC[C@@H]4[C@@]5(C)CC[C@H](O)C(C)(C)[C@@H]5CC[C@]43C)[C@H]12 [BROMOOCTYL-3BETA-HYDROXY-URS-12-EN-28-OATE]		0%	0%				1%	4%
C[C@H]1[C@H](C)CC[C@]2(C(=O)OCCCBr)CC[C@]3(C)C(=CC[C@@H]4[C@@]5(C)CC[C@H](O)C(C)(C)[C@@H]5CC[C@]43C)[C@H]12 [BROMOPROPYL-3BETA-HYDROXY-URS-12-EN-28-OATE]		9%	10%				0%	68%
COC(=O)[C@]12CC[C@@H](C)[C@H](C)[C@H]1C1=CC[C@@H]3[C@@]4(C)CC[C@H](O)C(C)(C)[C@@H]4CC[C@@]3(C)[C@]1(C)CC2 [METHYL URSOLATE]	0%	20%	0%	2%	21%	11%		
COC(=O)COC(=O)[C@]12CC[C@@H](C)[C@H](C)[C@H]1C1=CC[C@@H]3[C@@]4(C)CC[C@H](O)C(C)(C)[C@@H]4CC[C@@]3(C)[C@]1(C)CC2 [3BETA-HYDROXY-URS-12-EN-28-METHYL ACETOACETATE]	0%	23%	0%	11%	24%	18%		
C=CCOC(=O)[C@]12CC[C@@H](C)[C@H](C)[C@H]1C1=CC[C@@H]3[C@@]4(C)CC[C@H](O)C(C)(C)[C@@H]4CC[C@@]3(C)[C@]1(C)CC2 [3BETA-HYDROXY-URS-12-EN-28-ALLYLATE]	0%	19%	0%	0%	25%	20%		
CC(=O)O[C@H]1C(=O)[C@@]2(C)[C@H]([C@H](OC(=O)c3ccccc3)[C@]3(O)C[C@H](OC(=O)[C@H](O)[C@@H](NC(=O)c4ccccc4)c4ccccc4)C(C)=C1C3(C)C)[C@]1(OC(C)=O)CO[C@@H]1C[C@@H]2O [PACLITAXEL]	36%	44%	67%	45%		30%		
C[C@H]1[C@H](C)CC[C@]2(C(=O)OCCCCCCBr)CC[C@]3(C)C(=CC[C@@H]4[C@@]5(C)CC[C@H](O)C(C)(C)[C@@H]5CC[C@]43C)[C@H]12 [BROMOHEXYL-3BETA-HYDROXY-URS-12-EN-28-OATE]		0%	0%				0%	3%
C=CCOC(=O)[C@]12CCC(C)(C)C[C@H]1C1=CC[C@@H]3[C@@]4(C)CC[C@H](O)C(C)(C)[C@@H]4CC[C@@]3(C)[C@]1(C)CC2 [3BETA-HYDROXY-OLEAN-12-EN-28-ALLYLATE]	1%	31%	0%	0%	15%	16%		
C[C@H]1[C@H](C)CC[C@]2(C(=O)OCCCCCCCCCBr)CC[C@]3(C)C(=CC[C@@H]4[C@@]5(C)CC[C@H](O)C(C)(C)[C@@H]5CC[C@]43C)[C@H]12 [BROMONONYL-3BETA-HYDROXY-URS-12-EN-28-OATE]		0%	3%				9%	0%
C[C@H]1[C@H](C)CC[C@]2(C(=O)OCCCCCCCCCCCCBr)CC[C@]3(C)C(=CC[C@@H]4[C@@]5(C)CC[C@H](O)C(C)(C)[C@@H]5CC[C@]43C)[C@H]12 [BROMODODECYL-3BETA-HYDROXY-URS-12-EN-28-OATE]		0%	0%				0%	0%
CO[C@@]12[C@H](COC(N)=O)C3=C(C(=O)C(C)=C(N)C3=O)N1C[C@@H]1N[C@@H]12 [MITOMYCIN]							61%	
